Each compound was assayed against T1, human PAH with the R408W mutation (Homo sapiens, UniProt P00439, R408W) (assay: Cell Based Phenylalanine Flux Assay). Settings: A375 R408W cells, 24 hrs with compound, then 20 μM sepiapterin and 800 μM 13C9,15N-Phenylalanine for 4 hours; 13C-Tyrosine by LC-MS; average where tested multiple times; read-out: AC50.
T1 construct: expressed in transfected cells
T1 sequence (P00439 1-452 R408W): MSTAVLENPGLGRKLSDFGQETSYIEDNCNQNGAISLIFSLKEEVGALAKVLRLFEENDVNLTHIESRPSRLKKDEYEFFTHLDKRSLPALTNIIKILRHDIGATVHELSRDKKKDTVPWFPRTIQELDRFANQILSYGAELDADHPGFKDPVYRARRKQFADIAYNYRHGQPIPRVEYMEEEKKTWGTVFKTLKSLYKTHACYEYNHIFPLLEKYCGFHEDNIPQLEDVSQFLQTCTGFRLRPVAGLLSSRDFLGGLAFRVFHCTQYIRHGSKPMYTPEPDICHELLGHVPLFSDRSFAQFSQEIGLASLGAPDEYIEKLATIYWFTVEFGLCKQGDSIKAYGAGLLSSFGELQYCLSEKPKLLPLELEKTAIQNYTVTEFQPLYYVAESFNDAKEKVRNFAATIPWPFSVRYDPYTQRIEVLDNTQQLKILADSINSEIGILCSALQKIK
Description: Compounds were resuspended in DMSO, and 2-fold serial dilutions were performed to generate a 10-point dose curve. Compounds were added to plated cells in a total volume of 100 pal, and a final DMSO concentration of 0.5%. Each compound was tested in duplicate. Following compound addition, cells were placed in a 5% CO2, 37° C. tissue culture incubator for 24 hrs. After the incubation period, 20 μM sepiapterin and 800 μM 13C9,15N-Phenylalanine were added. After 4 hours, cell media was removed. An aliquot of 10 μl of cell media was combined with 200 μl of extraction buffer (80% acetonitrile/20% H2O) for each well. Determination of ^13C-Tyrosine concentration was assessed by liquid chromatography mass spectrometry.

Row | Compound | AC50 [µM]
1 | O=C(C1CN(CC(F)(F)F)C1)N1CCc2[nH]cnc2C1c1ccc2ccccc2n1 (stereo not shown) [listing 1 of 2 here] | 1 to 5
2 | O=C(c1cnn(-c2ccccn2)c1)N1CCc2[nH]cnc2C1c1ccc2ccccc2n1 (stereo not shown) | 1 to 5
3 | O=C(C1CN(c2ccccn2)C1)N1CCc2[nH]cnc2C1c1ccc2ccccc2n1 (stereo not shown) [listing 1 of 2 here] | 1 to 5
4 | Cn1cc(-c2ncc(C(=O)N3CCc4[nH]cnc4C3c3ccc4ccccc4n3)o2)cn1 (stereo not shown) | 1 to 5
5 | Cc1nc(CCN2CC(F)C2)oc1C(=O)N1CCc2[nH]cnc2C1c1ccc2ccccc2n1 (stereo not shown) [listing 1 of 2 here] | 1 to 5
6 | Cc1nc(N2CCC(F)CC2)oc1C(=O)N1CCc2[nH]cnc2C1c1ccc2ccccc2n1 (stereo not shown) [listing 1 of 2 here] | 1 to 5
7 | O=C(c1oc(-c2ccccn2)nc1C1CC1)N1CCCc2[nH]cnc2C1c1ccc2ccccc2n1 (stereo not shown) [listing 1 of 2 here] | 1 to 5
8 | O=C(c1nnc(-c2cn[nH]c2)o1)N1CCc2[nH]cnc2C1c1ccc2ccccc2n1 (stereo not shown) [listing 1 of 2 here] | 1 to 5
9 | O=C(c1nnc(CCN2CCOCC2)o1)N1CCc2[nH]cnc2C1c1ccc2ccccc2n1 (stereo not shown) [listing 1 of 2 here] | 1 to 5
10 | O=C(c1nnc(C2CC(F)(F)C2)o1)N1CCc2[nH]cnc2C1c1ccc2ccccc2n1 (stereo not shown) [listing 1 of 2 here] | 1 to 5
11 | O=C(c1nnc(-c2ccc(C(F)(F)F)cc2)o1)N1CCc2[nH]cnc2C1c1ccc2ccccc2n1 (stereo not shown) [listing 1 of 2 here] | 1 to 5
12 | Cc1cc(F)ccc1-c1nnc(C(=O)N2CCc3[nH]cnc3C2c2ccc3ccccc3n2)o1 (stereo not shown) | 1 to 5
13 | O=C(c1nnc(N2CCC(F)CC2)o1)N1CCc2[nH]cnc2C1c1ccc2ccccc2n1 (stereo not shown) [listing 1 of 2 here] | 1 to 5
14 | O=C(c1nnc(-c2ccccn2)o1)N1CCCc2[nH]cnc2C1c1ccc2ccccc2n1 (stereo not shown) | > 5
15 | O=C(c1cnn(-c2ccccn2)c1Cl)N1CCc2[nH]cnc2C1c1ccc2ccccc2n1 (stereo not shown) [listing 1 of 2 here] | 1 to 5
16 | COCc1ccc2c(C(=O)N3CCc4[nH]cnc4C3c3ccc4ccccc4n3)cnn2c1 (stereo not shown) | > 5
17 | O=C(C1CC1)N1CCc2[nH]cnc2C1c1ccc2ccccc2n1 (stereo not shown) | 1 to 5
18 | COCCNc1nnc(C(=O)N2CCc3[nH]cnc3C2c2ccc3ccccc3n2)o1 (stereo not shown) [listing 1 of 2 here] | 1 to 5
19 | Cc1nc(NC2CC2)oc1C(=O)N1CCc2[nH]cnc2C1c1ccc2ccccc2n1 (stereo not shown) [listing 1 of 2 here] | 1 to 5
20 | CN(C)Cc1nnc(C(=O)N2CCc3[nH]cnc3C2c2ccc3ccccc3n2)o1 (stereo not shown) [listing 1 of 2 here] | 1 to 5

Row | Compound | AC50 [µM]
21 | COC(=O)N1CC(C(=O)N2CCc3[nH]cnc3C2c2ccc3ccccc3n2)C1 (stereo not shown) | > 5
22 | O=C(C1CN(CC(F)(F)F)C1)N1CCc2[nH]cnc2C1c1ccc2ccccc2n1 (stereo not shown) [listing 2 of 2 here] | > 5
23 | O=C(C1CN(c2ccccn2)C1)N1CCc2[nH]cnc2C1c1ccc2ccccc2n1 (stereo not shown) [listing 2 of 2 here] | > 5
24 | COCc1ncc(C(=O)N2CCc3[nH]cnc3C2c2ccc3ccccc3n2)s1 (stereo not shown) | > 5
25 | O=C(c1oc(-c2ccccn2)nc1C1CC1)N1CCCc2[nH]cnc2C1c1ccc2ccccc2n1 (stereo not shown) [listing 2 of 2 here] | > 5
26 | Cc1nc(N2CCOCC2)oc1C(=O)N1CCc2[nH]cnc2C1c1ccc2ccccc2n1 (stereo not shown) [listing 2 of 2 here] | > 5
27 | O=C(c1nnc(-c2cn[nH]c2)o1)N1CCc2[nH]cnc2C1c1ccc2ccccc2n1 (stereo not shown) [listing 2 of 2 here] | > 5
28 | O=C(c1nnc(CCN2CCOCC2)o1)N1CCc2[nH]cnc2C1c1ccc2ccccc2n1 (stereo not shown) [listing 2 of 2 here] | > 5
29 | O=C(c1nnc(N2CC(F)C2)o1)N1CCc2[nH]cnc2C1c1ccc2ccccc2n1 (stereo not shown) [listing 2 of 2 here] | > 5
30 | O=C(c1nnc(-c2ccc(C(F)(F)F)cc2)o1)N1CCc2[nH]cnc2C1c1ccc2ccccc2n1 (stereo not shown) [listing 2 of 2 here] | > 5
31 | O=C(c1nnc(N2CCC(F)CC2)o1)N1CCc2[nH]cnc2C1c1ccc2ccccc2n1 (stereo not shown) [listing 2 of 2 here] | > 5
32 | CN1CCN(c2nnc(C(=O)N3CCc4[nH]cnc4C3c3ccc4ccccc4n3)o2)CC1 (stereo not shown) [listing 2 of 2 here] | > 5
33 | O=C(c1nnc(COC(F)(F)F)o1)N1CCc2[nH]cnc2C1c1ccc2ccccc2n1 (stereo not shown) [listing 2 of 2 here] | > 5
34 | O=C(c1nnc(CCNC2CC2)o1)N1CCc2[nH]cnc2C1c1ccc2ccccc2n1 (stereo not shown) [listing 2 of 2 here] | > 5
35 | COCCNc1nnc(C(=O)N2CCc3[nH]cnc3C2c2ccc3ccccc3n2)o1 (stereo not shown) [listing 2 of 2 here] | > 5
36 | CN(C)c1nnc(C(=O)N2CCc3[nH]cnc3C2c2ccc3ccccc3n2)o1 (stereo not shown) [listing 2 of 2 here] | > 5
37 | CC1CN(C(=O)c2nnc(C(C)(C)O)o2)C(c2cc3ccccc3cn2)c2nc[nH]c21 (stereo not shown) | 1 to 5
38 | CC1CN(C(=O)c2nnc(N(C)C)o2)C(c2cc3ccccc3cn2)c2nc[nH]c21 (stereo not shown) [listing 1 of 3 here] | 1 to 5
39 | CC1CN(C(=O)c2cnn3cc(CN(C)C)ccc23)C(c2cc3ccccc3cn2)c2nc[nH]c21 (stereo not shown) [listing 1 of 2 here] | > 5
40 | CC1CN(C(=O)c2nnc(N(C)C)o2)C(c2cc3ccccc3cn2)c2nc[nH]c21 (stereo not shown) [listing 3 of 3 here] | > 5

Next, values leading:

Row | AC50 [µM] | Compound
41 | 1 to 5 | CC(C)(O)c1nc(C2CC2)c(C(=O)N2CCc3[nH]cnc3C2c2ccc3ccccc3n2)o1 (stereo not shown)
42 | 1 to 5 | Cn1nc(COC(F)(F)F)cc1C(=O)N1CCc2[nH]cnc2C1c1ccc2ccccc2n1 (stereo not shown)
43 | 1 to 5 | COC(C)(C)c1nc(C)c(C(=O)N2CCc3[nH]cnc3C2c2ccc3ccccc3n2)o1 (stereo not shown)
44 | 1 to 5 | O=C(c1oc(C2CC2)nc1C(F)F)N1CCc2[nH]cnc2C1c1ccc2ccccc2n1 (stereo not shown)
45 | 1 to 5 | Cc1nc(N2CCN(C)CC2)oc1C(=O)N1CCc2[nH]cnc2C1c1ccc2ccccc2n1 (stereo not shown)
46 | 1 to 5 | Cc1nc(N2CCOCC2)oc1C(=O)N1CCc2[nH]cnc2C1c1ccc2ccccc2n1 (stereo not shown) [listing 1 of 2 here]
47 | 1 to 5 | O=C(c1nnc(-c2ccn(CC(F)F)n2)o1)N1CCc2[nH]cnc2C1c1ccc2ccccc2n1 (stereo not shown) [listing 1 of 2 here]
48 | 1 to 5 | O=C(c1nnc(N2CC(F)C2)o1)N1CCc2[nH]cnc2C1c1ccc2ccccc2n1 (stereo not shown) [listing 1 of 2 here]
49 | 1 to 5 | CN1CCN(c2nnc(C(=O)N3CCc4[nH]cnc4C3c3ccc4ccccc4n3)o2)CC1 (stereo not shown) [listing 1 of 2 here]
50 | 1 to 5 | O=C(c1nnc(-c2ccc(C(F)(F)F)cn2)o1)N1CCc2[nH]cnc2C1c1ccc2ccccc2n1 (stereo not shown) [listing 1 of 2 here]
51 | 1 to 5 | O=C(c1nnc(COC(F)(F)F)o1)N1CCc2[nH]cnc2C1c1ccc2ccccc2n1 (stereo not shown) [listing 1 of 2 here]
52 | 1 to 5 | COCc1nnc(C(=O)N2CCc3[nH]cnc3C2c2ccc3ccccc3n2)o1 (stereo not shown)
53 | 1 to 5 | O=C(c1nnc(N2CCOCC2)o1)N1CCc2[nH]cnc2C1c1ccc2ccccc2n1 (stereo not shown) [listing 1 of 2 here]
54 | 1 to 5 | COCCc1ccc2c(C(=O)N3CCc4[nH]cnc4C3c3ccc4ccccc4n3)cnn2c1 (stereo not shown) [listing 1 of 2 here]
55 | 1 to 5 | O=C(C1CC1(F)F)N1CCc2[nH]cnc2C1c1ccc2ccccc2n1 (stereo not shown)
56 | 1 to 5 | O=C(Cc1cnn2ccccc12)N1CCc2[nH]cnc2C1c1ccc2ccccc2n1 (stereo not shown)
57 | 1 to 5 | Cc1nc(N)oc1C(=O)N1CCc2[nH]cnc2C1c1ccc2ccccc2n1 (stereo not shown) [listing 1 of 2 here]
58 | 1 to 5 | O=C(c1nnc(CCNC2CC2)o1)N1CCc2[nH]cnc2C1c1ccc2ccccc2n1 (stereo not shown) [listing 1 of 2 here]
59 | 1 to 5 | O=C(c1nnc(NC2CC2)o1)N1CCc2[nH]cnc2C1c1ccc2ccccc2n1 (stereo not shown) [listing 1 of 2 here]
60 | 1 to 5 | CN(C)c1nnc(C(=O)N2CCc3[nH]cnc3C2c2ccc3ccccc3n2)o1 (stereo not shown) [listing 1 of 2 here]

Row | AC50 [µM] | Compound
61 | 1 to 5 | Cc1nc(N(C)C)oc1C(=O)N1CCc2[nH]cnc2C1c1ccc2ccccc2n1 (stereo not shown)
62 | 1 to 5 | Cc1nc(CCN(C)C)oc1C(=O)N1CCc2[nH]cnc2C1c1ccc2ccccc2n1 (stereo not shown)
63 | > 5 | Cc1nc(CCN2CC(F)C2)oc1C(=O)N1CCc2[nH]cnc2C1c1ccc2ccccc2n1 (stereo not shown) [listing 2 of 2 here]
64 | > 5 | Cc1nc(N2CCC(F)CC2)oc1C(=O)N1CCc2[nH]cnc2C1c1ccc2ccccc2n1 (stereo not shown) [listing 2 of 2 here]
65 | > 5 | O=C(c1nnc(-c2ccn(CC(F)F)n2)o1)N1CCc2[nH]cnc2C1c1ccc2ccccc2n1 (stereo not shown) [listing 2 of 2 here]
66 | > 5 | O=C(c1nnc(C2CC(F)(F)C2)o1)N1CCc2[nH]cnc2C1c1ccc2ccccc2n1 (stereo not shown) [listing 2 of 2 here]
67 | > 5 | O=C(c1nnc(-c2ccc(C(F)(F)F)cn2)o1)N1CCc2[nH]cnc2C1c1ccc2ccccc2n1 (stereo not shown) [listing 2 of 2 here]
68 | > 5 | O=C(c1nnc(N2CCOCC2)o1)N1CCc2[nH]cnc2C1c1ccc2ccccc2n1 (stereo not shown) [listing 2 of 2 here]
69 | > 5 | O=C(c1cnn(-c2ccccn2)c1Cl)N1CCc2[nH]cnc2C1c1ccc2ccccc2n1 (stereo not shown) [listing 2 of 2 here]
70 | > 5 | COCCc1ccc2c(C(=O)N3CCc4[nH]cnc4C3c3ccc4ccccc4n3)cnn2c1 (stereo not shown) [listing 2 of 2 here]
71 | > 5 | Cc1nc(N)oc1C(=O)N1CCc2[nH]cnc2C1c1ccc2ccccc2n1 (stereo not shown) [listing 2 of 2 here]
72 | > 5 | Cc1nc(NC2CC2)oc1C(=O)N1CCc2[nH]cnc2C1c1ccc2ccccc2n1 (stereo not shown) [listing 2 of 2 here]
73 | > 5 | O=C(c1nnc(NC2CC2)o1)N1CCc2[nH]cnc2C1c1ccc2ccccc2n1 (stereo not shown) [listing 2 of 2 here]
74 | > 5 | CN(C)Cc1nnc(C(=O)N2CCc3[nH]cnc3C2c2ccc3ccccc3n2)o1 (stereo not shown) [listing 2 of 2 here]
75 | 1 to 5 | Cc1ncoc1C(=O)N1CC2(CC2)c2[nH]cnc2C1c1ccc2ccccc2n1 (stereo not shown)
76 | 1 to 5 | CC1CN(C(=O)c2nnc(N3CCOCC3)o2)C(c2cc3ccccc3cn2)c2nc[nH]c21 (stereo not shown) [listing 1 of 2 here]
77 | 1 to 5 | CC1CN(C(=O)c2nnc(N(C)C)o2)C(c2cc3ccccc3cn2)c2nc[nH]c21 (stereo not shown) [listing 2 of 3 here]
78 | > 5 | CC1CN(C(=O)c2nnc(N3CCOCC3)o2)C(c2cc3ccccc3cn2)c2nc[nH]c21 (stereo not shown) [listing 2 of 2 here]
79 | 1 to 5 | CC1CN(C(=O)c2cnn3cc(CN(C)C)ccc23)C(c2cc3ccccc3cn2)c2nc[nH]c21 (stereo not shown) [listing 2 of 2 here]

Reference: US20250262201A1, “COMPOUNDS AND METHODS USEFUL FOR STABILIZING PHENYLALANINE HYDROXYLASE MUTATIONS” (Agios Pharmaceuticals, Inc., priority 2022, published 2025)
